Among the data in patent US20250340575A1, “4-AMINOPYRROLO[2,1-F][1,2,4]TRIAZINES AND PREPARATION AND USES THEREOF” (Biosplice Therapeutics, Inc., priority 2024, published 2025) are IC50 values, retold here.

Structures are written as SMILES. pIC50: −log10 of the molar value.

The target of this assay is recombinant DYRK1A kinase (Homo sapiens, UniProt Q13627). Description: DYRK1A kinase assay (Ser/Thr 18 peptide Z-lyte FRET). Type of assay: biochemical. The following applies: DYRK1A 0.25 μg/mL, ATP 15 μM, Ser/Thr peptide 18 4 μM, one hour at room temperature, 11-point dose-response from 10 μM.

As to `CNc1nc(N[C@@H]2CCN(C(C)=O)CC2(F)F)nn2ccc(-c3ccc4nccn4n3)c12` [Compound 46, (R)-1-(3,3-Difluoro-4-((5-(imidazo[1,2-b]pyridazin-6-yl)-4-(methylamino)pyrrolo[2,1-f][1,2,4]triazin-2-yl)amino)piperidin-1-yl)ethan-1-one], the pIC50 was 8.52. With `CC(=O)N1CC[C@H](Nc2nc(N)c3c(-c4ccc5nc(C)n(CCF)c5n4)c(F)cn3n2)[C@H](F)C1` [Compound 144, 1-((3R,4S)-4-((4-Amino-6-fluoro-5-(3-(2-fluoroethyl)-2-methyl-3H-imidazo [4,5-b]pyridin-5-yl)pyrrolo[2,1-f][1,2,4]triazin-2-yl)amino)-3-fluoropiperidin-1-yl)ethan-1-one], the pIC50 is 8.38. With `CC(=O)N1CC[C@H](Nc2nc(N)c3c(-c4ccc5ncn(CCF)c5n4)ccn3n2)[C@H](F)C1` [Compound 115, 1-((3R,4S)-4-((4-Amino-5-(3-(2-fluoroethyl)-3H-imidazo[4,5-b]pyridin-5-yl)pyrrolo[2,1-f][1,2,4]triazin-2-yl)amino)-3-fluoropiperidin-1-yl)ethan-1-one], the pIC50 was 9.00. The value for `CC(=O)N1CC[C@@H](Nc2nc(N)c3c(-c4ccc5nnn(CCF)c5n4)ccn3n2)C(F)(F)C1` [Compound 222, (R)-1-(4-((4-Amino-5-(3-(2-fluoroethyl)-3H-[1,2,3]triazolo[4,5-b]pyridin-5-yl)pyrrolo[2,1-f][1,2,4]triazin-2-yl)amino)-3,3-difluoropiperidin-1-yl)ethan-1-one] was 8.49. Next, `CNc1nc(N[C@@H]2CCN(C(C)=O)CC2(F)F)nn2ccc(-c3ccc4nnn(CCF)c4n3)c12` [Compound 238, (R)-1-(3,3-Difluoro-4-((5-(3-(2-fluoroethyl)-3H-[1,2,3]triazolo[4,5-b]pyridin-5-yl)-4-(methylamino)pyrrolo[2,1-f][1,2,4]triazin-2-yl)amino)piperidin-1-yl)ethan-1-one]: 8.85.

Turning to `CNc1nc(N[C@H]2CCN(C(C)=O)C[C@H]2F)nn2ccc(-c3ccc4nnn(CCF)c4n3)c12` [Compound 235, 1-((3R,4S)-3-Fluoro-4-((5-(3-(2-fluoroethyl)-3H-[1,2,3]triazolo[4,5-b]pyridin-5-yl)-4-(methylamino)pyrrolo[2,1-f][1,2,4]triazin-2-yl)amino)piperidin-1-yl)ethan-1-one], the pIC50 is 8.70. As to `Cc1nc2ccc(-c3c(F)cn4nc(N[C@@H]5CCN(C6COC6)CC5(F)F)nc(N)c34)nc2n1CCF` [Compound 149, (R)—N^2-(3,3-Difluoro-1-(oxetan-3-yl)piperidin-4-yl)-6-fluoro-5-(3-(2-fluoroethyl)-2-methyl-3H-imidazo[4,5-b]pyridin-5-yl)pyrrolo[2,1-f][1,2,4]triazine-2,4-diamine], the pIC50 is 9.10.

On to `CNc1nc(N[C@H]2CCN(C3COC3)C[C@H]2F)nn2ccc(-c3ccc4nc(C)n(CCF)c4n3)c12` [Compound 157, N^2-((3R,4S)-3-Fluoro-1-(oxetan-3-yl)piperidin-4-yl)-5-(3-(2-fluoroethyl)-2-methyl-3H-imidazo[4,5-b]pyridin-5-yl)-N^4-methylpyrrolo[2,1-f][1,2,4]triazine-2,4-diamine], for which the pIC50 was 7.80. The value for `Nc1nc(N[C@@H]2CCN(C3COC3)CC2(F)F)nn2cc(F)c(-c3ccc4nnn(CC(F)F)c4n3)c12` [Compound 264, (R)—N^2-(3,3-Difluoro-1-(oxetan-3-yl)piperidin-4-yl)-5-(3-(2,2-difluoroethyl)-3H-[1,2,3]triazolo[4,5-b]pyridin-5-yl)-6-fluoropyrrolo[2,1-f][1,2,4]triazine-2,4-diamine] was 8.92; that for `CNc1nc(N[C@H]2CCN(C(=O)CO)C[C@H]2F)nn2ccc(-c3ccc4nc(C)n(CC(F)F)c4n3)c12` [Compound 174, 1-((3R,4S)-4-((5-(3-(2,2-Difluoroethyl)-2-methyl-3H-imidazo[4,5-b]pyridin-5-yl)-4-(methylamino)pyrrolo[2,1-f][1,2,4]triazin-2-yl)amino)-3-fluoropiperidin-1-yl)-2-hydroxyethan-1-one] was 8.70; that for `Cc1nc2ccc(-c3c(F)cn4nc(N[C@@H]5CCN(C)CC5(F)F)nc(N)c34)nc2n1CCF` [Compound 146, (R)—N^2-(3,3-Difluoro-1-methylpiperidin-4-yl)-6-fluoro-5-(3-(2-fluoroethyl)-2-methyl-3H-imidazo[4,5-b]pyridin-5-yl)pyrrolo[2,1-f][1,2,4]triazine-2,4-diamine] was 9.10. The value for `Nc1nc(N[C@H]2CCN(C3COC3)C[C@H]2F)nn2ccc(-c3ccc4nnn(CCF)c4n3)c12` [Compound 220, N^2-((3R,4S)-3-Fluoro-1-(oxetan-3-yl)piperidin-4-yl)-5-(3-(2-fluoroethyl)-3H-[1,2,3]triazolo[4,5-b]pyridin-5-yl)pyrrolo[2,1-f][1,2,4]triazine-2,4-diamine] was 8.28. In the case of `Nc1nc(N[C@H]2CCN(C3COC3)C[C@H]2F)nn2ccc(-c3ccc4ncn(CC(F)(F)F)c4n3)c12` [Compound 129, N^2-((3R,4S)-3-Fluoro-1-(oxetan-3-yl)piperidin-4-yl)-5-(3-(2,2,2-trifluoroethyl)-3H-imidazo[4,5-b]pyridin-5-yl)pyrrolo[2,1-f][1,2,4]triazine-2,4-diamine], the pIC50 is 8.85. The value for `CNc1nc(N[C@H]2CCN(C3COC3)C[C@H]2F)nn2cc(F)c(-c3ccc4nnn(CC(F)F)c4n3)c12` [Compound 290, 5-(3-(2,2-Difluoroethyl)-3H-[1,2,3]triazolo[4,5-b]pyridin-5-yl)-6-fluoro-N^2-((3R,4S)-3-fluoro-1-(oxetan-3-yl)piperidin-4-yl)-N^4-methylpyrrolo[2,1-f][1,2,4]triazine-2,4-diamine] was 8.92; that for `CNc1nc(N[C@@H]2CCN(C)CC2(F)F)nn2cc(F)c(-c3ccc4nnn(CCF)c4n3)c12` [Compound 251, (R)—N^2-(3,3-Difluoro-1-methylpiperidin-4-yl)-6-fluoro-5-(3-(2-fluoroethyl)-3H-[1,2,3]triazolo[4,5-b]pyridin-5-yl)-N^4-methylpyrrolo[2,1-f][1,2,4]triazine-2,4-diamine] was 8.66. Turning to `CNc1nc(N[C@@H]2CCN(C)CC2(F)F)nn2ccc(-c3ccc4nnn(CCF)c4n3)c12` [Compound 237, (R)—N^2-(3,3-Difluoro-1-methylpiperidin-4-yl)-5-(3-(2-fluoroethyl)-3H-[1,2,3]triazolo[4,5-b]pyridin-5-yl)-N^4-methylpyrrolo[2,1-f][1,2,4]triazine-2,4-diamine], the pIC50 is 9.15. The value for `CNc1nc(N[C@@H]2CCN(C3COC3)CC2(F)F)nn2cc(F)c(-c3ccc4nnn(CC(F)F)c4n3)c12` [Compound 295, (R)—N^2-(3,3-Difluoro-1-(oxetan-3-yl)piperidin-4-yl)-5-(3-(2,2-difluoroethyl)-3H-[1,2,3]triazolo[4,5-b]pyridin-5-yl)-6-fluoro-N^4-methylpyrrolo[2,1-f][1,2,4]triazine-2,4-diamine] was 8.85.

For the compound `CNc1nc(N[C@@H]2CCN(C(C)=O)CC2(F)F)nn2cc(F)c(-c3ccc4nc(C)n(CC(F)F)c4n3)c12` [Compound 177, (R)-1-(4-((5-(3-(2,2-Difluoroethyl)-2-methyl-3H-imidazo[4,5-b]pyridin-5-yl)-6-fluoro-4-(methylamino)pyrrolo[2,1-f][1,2,4]triazin-2-yl)amino)-3,3-difluoropiperidin-1-yl)ethan-1-one], the pIC50 is 8.82. Next, `CNc1nc(N[C@H]2CCN(C)C[C@H]2F)nn2ccc(-c3ccc4nnn(CCCF)c4n3)c12` [Compound 333, N^2-((3R,4S)-3-Fluoro-1-methylpiperidin-4-yl)-5-(3-(3-fluoropropyl)-3H-[1,2,3]triazolo[4,5-b]pyridin-5-yl)-N^4-methylpyrrolo[2,1-f][1,2,4]triazine-2,4-diamine]: 7.95; `CNc1nc(N[C@@H]2CCN(C(C)=O)CC2(F)F)nn2cc(F)c(-c3ccc4nnn(CCF)c4n3)c12` [Compound 252, (R)-1-(3,3-Difluoro-4-((6-fluoro-5-(3-(2-fluoroethyl)-3H-[1,2,3]triazolo[4,5-b]pyridin-5-yl)-4-(methylamino)pyrrolo[2,1-f][1,2,4]triazin-2-yl)amino)piperidin-1-yl)ethan-1-one]: 8.72; `CC(=O)N1CC[C@@H](Nc2nc(N)c3c(-c4ccc5nc(C)n(CCF)c5n4)c(F)cn3n2)C(F)(F)C1` [Compound 147, (R)-1-(4-((4-Amino-6-fluoro-5-(3-(2-fluoroethyl)-2-methyl-3H-imidazo[4,5-b]pyridin-5-yl)pyrrolo[2,1-f][1,2,4]triazin-2-yl)amino)-3,3-difluoropiperidin-1-yl)ethan-1-one]: 8.85. Next, `Nc1nc(N[C@@H]2CCN(C3COC3)C[C@@H]2F)nn2ccc(-c3ccc4ncn(CCF)c4n3)c12` [Compound 116, N^2-((3S,4R)-3-Fluoro-1-(oxetan-3-yl)piperidin-4-yl)-5-(3-(2-fluoroethyl)-3H-imidazo[4,5-b]pyridin-5-yl)pyrrolo[2,1-f][1,2,4]triazine-2,4-diamine]: 8.80; `Cc1nc2ccc(-c3ccn4nc(N[C@@H]5CCN(C)CC5(F)F)nc(N)c34)nc2n1CCF` [Compound 142, (R)—N^2-(3,3-Difluoro-1-methylpiperidin-4-yl)-5-(3-(2-fluoroethyl)-2-methyl-3H-imidazo[4,5-b]pyridin-5-yl)pyrrolo[2,1-f][1,2,4]triazine-2,4-diamine]: 8.57. Next, `CNc1nc(N[C@H]2CCN(CCOC)C[C@H]2F)nn2ccc(-c3ccc4nnn(CC(F)F)c4n3)c12` [Compound 275, 5-(3-(2,2-Difluoroethyl)-3H-[1,2,3]triazolo[4,5-b]pyridin-5-yl)-N^2-((3R,4S)-3-fluoro-1-(2-methoxyethyl)piperidin-4-yl)-N^4-methylpyrrolo[2,1-f][1,2,4]triazine-2,4-diamine]: 8.08; `CNc1nc(N[C@@H]2CCN(C)CC2(F)F)nn2ccc(-c3ccc4nnn(CCCF)c4n3)c12` [Compound 338, (R)—N^2-(3,3-Difluoro-1-methylpiperidin-4-yl)-5-(3-(3-fluoropropyl)-3H-[1,2,3]triazolo[4,5-b]pyridin-5-yl)-N^4-methylpyrrolo[2,1-f][1,2,4]triazine-2,4-diamine]: 8.51.
